In paper PMC9238271, “The quorum sensing peptide EntF* promotes colorectal cancer metastasis in mice: a new factor in the host-microbiome interaction” (BMC Biology, 2022):
“And” between values parts separate entries of the source, which are not always exact repeats. Equal values may be shown once.

Legend:
[1] = tested on: E-cadherin expression in HCT-8 cells; assay: Western blot of E-cadherin expression, HCT-8 cells (EntF*, alanine and D-amino acid analogs); type: cell-based
Experimental: (§1) HCT-8, HT-29, and HT-116 cells were grown in DMEM medium supplied with 10% fetal bovine serum (FBS) and 1% penicillin-streptomycin. Caco-2 cells were grown in DMEM medium supplied with 10% FBS, 1% non-essential amino acid NEAA), and 1% penicillin-streptomycin. Cells were cultured at 37 °C and 5% CO2. As cells reached confluency, they were detached using 0.25% Trypsin-EDTA.
(§2) For Western blot analyses, HCT-8 (n = 15), HCT-116 (n = 12), Caco-2 (n = 6), and HT-29 (n = 12) cells were seeded in 6-well plates at a density of 1 × 10^6 cells/well. Twenty-four hours after seeding, all cell lines were treated with 1 μM EntF* or a placebo solution. HCT-8 cells were also tested for responsiveness to 1 μM EntF* synthetic alanine-derived analogs. For antagonist activity analysis, HCT-8 cells were treated with 1 μM Nef-M1 or 1 μM EntF*A1 alone or in combination with 500 nM EntF*. After 24 h, cells were detached from the surface and lysed in RIPA buffer (Thermo Scientific). Protein concentration was determined using the modified Lowry protein assay kit (Thermo Scientific), according to the manufacturer’s instructions. Protein samples were diluted to the same concentration (4 μg/μL) with water and diluted again 1:1 using 2x Laemmli buffer. After that, samples were boiled for 5 min at 95 °C to denature proteins and centrifuged for 5 min at 16,000g; supernatants were used for Western blot analyses. Equal amounts of total protein (20 μg/lane) were separated by SDS-PAGE on an Any kD^TM gel (Bio-Rad ) and then transferred to a PVDF membrane. Before incubation with antibodies, non-specific binding sites on the membranes were blocked using 5% skimmed milk solution (1 h). TBS buffer with 0.05% Tween 20 was used for all washing steps. Membranes were incubated overnight at 4 °C with an anti-E-cadherin primary antibody (1/1000 dilution). An HRP-conjugated anti-rabbit antibody (1/2000 dilution, 1 h incubation) was used for chemiluminescent detection. Membranes were incubated with the detection substrate for 5 min and signal detection was performed using the ChemiDoc EZ imager and Image Lab software (Bio-Rad). Signal intensity was normalized against the total protein content in each lanes.
A quantitative approach was used to evaluate the importance of each amino acid, where the Fisher’s LSD p-values of (1) multiple comparisons between EntF* and the alanine (ALA) scan and (2) multiple comparisons between different peptides of the ALA scan are combined. Subsequently, based on the combined P-score, the amino acids were classified in 5 classes using a hierarchical cluster analysis and confirmed using the Jenks natural breaks algorithm with K = 5. CombinedPscore=1-PPBSvsALAscan*PEntF*vsALAscan

[2] = tested on: E-cadherin expression in HT-29 cells; assay: Western blot of E-cadherin expression, HT-29 cells; type: cell-based; settings: HT-29 cells, average of n = 12
Experimental: as §1
as §2, with “Signal intensity was normalized against the total protein content in each lanes.” left out

[3] = tested on: E-cadherin expression in Caco-2 cells; assay: Western blot of E-cadherin expression, Caco-2 cells; type: cell-based; settings: CaCo-2 cells, average of n = 6
Experimental: as §1
as §2, with “Signal intensity was normalized against the total protein content in each lanes.” left out

[4] = tested on: E-cadherin expression in HCT-116 cells; assay: Western blot of E-cadherin expression, CXCR4-negative HCT-116 cells; type: cell-based
Experimental: as §1, §2

[5] = tested on: tumor nodules in the liver; assay: Orthotopic mouse model: histopathological evaluation of liver; type: in vivo, female athymic nude mice (Swiss nu/nu)
Experimental: (§3) Six-week-old female athymic nude mice (Swiss nu/nu) were anesthetized, and a minimally invasive midline laparotomy was performed to localize the cecum. The cecum was then gently pulled out, and luciferase-transfected HCT-8/E11 cells (1 × 10^6 cells) in 20 μL serum-free DMEM medium with Matrigel (1:1) were injected into the cecal wall. Before implantation, cells were treated with EntF* (10^2 nM), Phr0662 (10^2 nM), vehicle (PBS), or TGFα positive control (0.1 μg mL^−1) solutions for 5 days. The cecum was then carefully placed back into the abdominal cavity and the surgical incision was closed with two layers of sutures with PDS 6-0. […] Once a week, mice were examined for tumor growth and metastases using bioluminescent imaging with the IVIS Lumina II (Perkin Elmer, Belgium) after i.p. injection with 200 μL luciferin (150 mg kg^−1). After 6 weeks, mice were euthanized using cervical dislocation, and the liver, diaphragm, lungs, cecum, duodenum, and peritoneum were macroscopically examined for the presence of tumor nodules. Liver and lung tissues were then fixed in formalin for 24 h and stored in 70% ethanol for maximum 3 days before embedding in paraffin. Next, a hematoxylin and eosin (H&E) staining was performed on 8 μm sections, and 3 sections per mouse were visualized using microscopy. Slides from tumor-bearing mice were analyzed by two blinded, independent investigators using the scoring system described in Additional file 5: Table S3. In case of differences, slides were scored by a third blinded, independent investigator for consensus.

[6] = tested on: luciferase-transfected HCT-8/E11 cells injected into the cecal wall; assay: Orthotopic mouse model of colorectal cancer: weekly bioluminescent imaging; type: in vivo, female athymic nude mice (Swiss nu/nu)
Experimental: All in vivo experiments were performed according to the Ethical Committee principles of laboratory animal welfare, approved by our institute (Ghent University, Faculty of Medicine and Health Sciences, approval number ECD 17-90). Mice were maintained in a sterile environment under controlled conditions (light–dark cycle with light from 7:00 h to 17:00 h, temperature 21–25 °C and humidity 45–65%). Before the experiment, mice were allowed to acclimate to the abovementioned conditions for a minimum of 7 days.
as §3
(§4) The Kolmogorov-Smirnov test was used to assess if data obtained were normally distributed. For sample size n < 10, non-parametric tests (Mann-Whitney U test) were performed directly. Slope comparison was based on linear regression analysis. Bootstrapped medians and Hedges G-values were used to calculate the effect size when sample sizes were different between the groups.

[7] = tested on: tumor nodules in the lungs; assay: Orthotopic mouse model: histopathological evaluation of lungs; type: in vivo, female athymic nude mice (Swiss nu/nu)
Experimental: as §3

[8] = tested on: luciferase-transfected HCT-8/E11 cells injected into the cecal wall; assay: Orthotopic mouse model: macroscopic number of tumor nodules on the cecum; type: in vivo, female athymic nude mice (Swiss nu/nu)
Experimental: as §3
as §4, with “groups. Cohen’s d values were calculated as a measure of the effect size when similar standard deviations for both groups were found, and sample sizes were the same.” for “groups.”

[9] = individual samples, one line per sample
[10] = after a 6-week treatment, compared to the placebo group

## TGFa
[1]; Ala-scan sheet, Blot 19 (single blot), chemiluminescence band, placebo lane = 100
  Relative E-cadherin decrease: 49.4514
[1]; Ala-scan sheet, Blot 20 (single blot), chemiluminescence band, placebo lane = 100
  E-cadherin expression relative to H2O control (= 100): 55.9239
[1]; Ala-scan sheet, Blot 21 (single blot), chemiluminescence band, placebo lane = 100
  Relative E-cadherin decrease: 121.047
[1]; Ala-scan sheet, Blot 24 (single blot), chemiluminescence band, Norm. Vol. relative to placebo lane = 100
  E-cadherin expression relative to H2O control (= 100): 52.2
[1]; Ala-scan sheet, Blot 25 (single blot), chemiluminescence band, Norm. Vol. relative to placebo lane = 100
  E-cadherin expression relative to H2O control (= 100): 30.5
[1]; Ala-scan sheet, Blot 26 (single blot), chemiluminescence band, Norm. Vol. relative to placebo lane = 100
  E-cadherin expression relative to H2O control (= 100): 88.2
[1]; Ala-scan sheet, Blot 27 (single blot), chemiluminescence band, Norm. Vol. relative to placebo lane = 100
  E-cadherin expression relative to H2O control (= 100): 330.9
[1]; Ala-scan, Blot 11 (single blot replicate), normalized band volume relative to Placebo = 100.0
  E-cadherin expression relative to H2O control (= 100): 85.7
[1]; Ala-scan, Blot 12 (single blot replicate), normalized band volume relative to Placebo = 100.0
  E-cadherin expression relative to H2O control (= 100): 80.6
[1]; Ala-scan, Blot 13 (single blot replicate), normalized band volume relative to Placebo = 100.0
  E-cadherin expression relative to H2O control (= 100): 55.6
[1]; Ala-scan, Blot 14 (single blot replicate), normalized band volume relative to Placebo = 100.0
  E-cadherin expression relative to H2O control (= 100): 119.9
[1]; Ala-scan, Blot 18 (single blot replicate), normalized band volume relative to Placebo = 100.0
  E-cadherin expression relative to H2O control (= 100): 188.1
[1]; H2O = 100.0, mean of the replicates (row r29, unlabelled; SEM in row below)
  Ala scan: Relative E-cadherin decrease: 73.9
[1]; H2O vs. test, 95% CI, Dunnett's and Fisher's LSD P values in neighbouring columns
  Ala-scan: Mean decrease (%): 26.1%

## C-X-C motif chemokine 12 (KPVSLSYRC; only N-terminal stretch given) [CXCL12, endogenous ligand of the CXCR4 receptor]
[2]
  Relative E-cadherin expression, average: 78.2
[3]
  Relative E-cadherin in different cell lines, Average: 45.3
[1]; 24 h, n = 15
  effect on E-cadherin levels in HCT-8 cells: significant decrease
[1]; D-scan sheet, Blot 13, CXCL12 1µg/ml, relative to H2O lane = 100.0, single blot
  E-cadherin expression relative to H2O control (= 100): 89.3
[1]; D-scan sheet, Blot 14, CXCL12 1µg/ml, relative to H2O lane = 100.0, single blot
  E-cadherin expression relative to H2O control (= 100): 93.2
[1]; D-scan sheet, Blot 15, CXCL12 1µg/ml, relative to H2O lane = 100.0, single blot
  E-cadherin expression relative to H2O control (= 100): 77.6
[1]; D-scan sheet, Blot 16, CXCL12 1µg/ml, relative to H2O lane = 100.0, single blot
  E-cadherin expression relative to H2O control (= 100): 91.1
[1]; D-scan sheet, Blot 17, CXCL12 10µg/ml, relative to H2O lane = 100.0, single blot
  E-cadherin expression relative to H2O control (= 100): 46.4
[1]; D-scan sheet, Blot 18, CXCL12 10µg/ml, relative to H2O lane = 100.0, single blot
  E-cadherin expression relative to H2O control (= 100): 45.6
[1]; D-scan sheet, Blot 19, CXCL12 10µg/ml, relative to H2O lane = 100.0, single blot
  E-cadherin expression relative to H2O control (= 100): 84.8
[1]; D-scan sheet, Blot 20, CXCL12 10µg/ml, relative to H2O lane = 100.0, single blot
  E-cadherin expression relative to H2O control (= 100): 28.8
[1]; D-scan sheet, Blot 21, CXCL12 100µg/ml, relative to H2O lane = 100.0, single blot
  E-cadherin expression relative to H2O control (= 100): 80.5
[1]; D-scan sheet, Blot 22, CXCL12 100µg/ml, relative to H2O lane = 100.0, single blot
  E-cadherin expression relative to H2O control (= 100): 80.0
[1]; D-scan sheet, Blot 23 (single blot), chemiluminescence band, Norm. Vol. relative to H2O lane = 100.0, CXCL12 at 100µg/ml
  E-cadherin expression relative to H2O control (= 100): 75.6
[1]; D-scan sheet, Blot 24 (single blot), chemiluminescence band, Norm. Vol. relative to H2O lane = 100.0, CXCL12 at 100µg/ml
  E-cadherin expression relative to H2O control (= 100): 96.6
[1]; H2O = 100.0, CXCL12 at 10µg/ml, mean of the replicates (row r47, unlabelled; SEM in row below)
  E-cadherin expression relative to H2O control (= 100): 51.4
[1]; HCT-8 cells, average (EntF* n = 15, CXCL12 n = 4)
  Relative E-cadherin decrease in different cell lines, Average: 51.4
[4]; CXCR4-negative cells, 24 h, n = 12
  effect on E-cadherin expression in HCT-116 cells: no decrease
[4]; HCT-116 cells, average of n = 12
  Relative E-cadherin level: 111.3

## Epidermal Growth Factor [EGF]
[5]; [9]
  Histology scoring LIVER, Scoring person 1 (ND): 4 and 3 and 2 and 0
  Histology scoring LIVER, Scoring person 2 (ADS): 4 and 2 and 1 and 3 and 0
  Histology scoring LIVER, conclusion per sample: 4 and 2 and 1 and 3 and 0
[5]; per group
  Histology scoring LIVER, conclusion per group: 3
[6]; after a 6-week treatment
  effect size of bioluminescence, upper end of range: 826%
[6]; [10]
  effect size class by Hedges' G, bioluminescence: medium to large effect
[6]; after a 6-week treatment, bootstrapped median
  effect size: increase in bioluminescence compared to the placebo: 316%
[6]; daily i.p. over 6 weeks, linear regression slope comparison
  luciferase activity / tumor growth compared to the vehicle: significant increase in tumor growth
[7]; [9]
  Histology scoring LUNGS, Scoring person 1 (ND): 3 and 4 and 0 and 1
  Histology scoring LUNGS, Scoring person 2 (ADS): 3 and 4 and 0 and 1
  Histology scoring LUNGS, conclusion per sample: 3 and 4 and 0 and 1
[7]; per group
  Histology scoring LUNGS, conclusion per group: 3
[8]; [10]
  effect size class by Hedges' G, number of nodules in the cecum: large
[8]; after a 6-week treatment, macroscopic inspection
  increase in the number of nodules on the cecum compared to PBS vehicle: 4.5 fold
[8]; macroscopic evaluation caecum, mean of the group
  Mean amount of nodules: 16.3
